In this assay the test system is recombinant NL4-3 virus (Renilla luciferase in nef, Gag P373S). Nature of the assay: HIV cell culture assay (luciferase reporter virus in MT-2 cells). The class given is cell-based. To be noted: NL43. The gist of the method: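 Activity was read as luciferase output (Dual Luciferase reagents premixed with lysis solution) after 4–5 days of infection in serially diluted inhibitor. Host cells were MT-2 in 10% FBS RPMI. The reporter virus came from transfected 293T cells and was titered on MT-2.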
In the case of `C=C(C)[C@@H]1CC[C@]2(CO)CC[C@]3(C)[C@H](CC[C@@H]4[C@@]5(C)CC=C(c6cc(C(=O)O)[nH]n6)C(C)(C)[C@@H]5CC[C@]43C)[C@@H]12` [Example 8, 3-((1R,3aS,5aR,5bR,7aR,11aS,11bR,13aR,13bR)-3a-(hydroxymethyl)-5a,5b,8,8,11a-pentamethyl-1-(prop-1-en-2-yl)-2,3,3a,4,5,5a,5b,6,7,7a,8,11,11a,11b,12,13,13a,13b-octadecahydro-1H-cyclopenta[a]chrysen-9-yl)-1H-pyrazole-5-carboxylic acid], the EC50 (commonly the concentration needed to bring the measured effect to its halfway point) is < 1 µM. Consider `C=C(C)[C@@H]1CC[C@]2(C(=O)O)CC[C@]3(C)[C@H](CC[C@@H]4[C@@]5(C)CC=C(c6ccc(CCC(=O)O)cc6)C(C)(C)[C@@H]5CC[C@]43C)[C@@H]12` [Example 4a, (1R,3aS,5aR,5bR,7aR,11aS,11bR,13aR,13bR)-9-(4-(2-carboxyethyl)phenyl)-5a,5b,8,8,11a-pentamethyl-1-(prop-1-en-2-yl)-2,3,3a,4,5,5a,5b,6,7,7a,8,11,11a,11b,12,13,13a,13b-octadecahydro-1H-cyclopenta[a]chrysene-3a-carboxylic acid], for which the EC50 is < 1 µM. For `C=C(C)[C@@H]1CC[C@]2(C(=O)O)CC[C@]3(C)[C@H](CC[C@@H]4[C@@]5(C)CC=C(c6ccc(O)cc6)C(C)(C)[C@@H]5CC[C@]43C)[C@@H]12` [Example 4f, (1R,3aS,5aR,5bR,7aR,11aS,11bR,13aR,13bR)-9-(4-hydroxyphenyl)-5a,5b,8,8,11a-pentamethyl-1-(prop-1-en-2-yl)-2,3,3a,4,5,5a,5b,6,7,7a,8,11,11a, 11b,12,13,13a,13b-octadecahydro-1H-cyclopenta[a]chrysene-3a-carboxylic acid], the EC50 was < 1 µM. The same measure for `C=C(C)[C@@H]1CC[C@]2(C(=O)O)CC[C@]3(C)[C@H](CC[C@@H]4[C@@]5(C)CC=C(c6ccc(C(=O)NS(C)(=O)=O)cc6)C(C)(C)[C@@H]5CC[C@]43C)[C@@H]12` [Example 6b, (1R,3aS,5aR,5bR,7aR,11aS,13aR,13bR)-5a,5b,8,8,11a-pentamethyl-9-(4-(methylsulfonylcarbamoyl)phenyl)-1-(prop-1-en-2-yl)-2,3,3a,4,5,5a,5b,6,7,7a,8,11,11a,11b,12,13,13a,13b-octadecahydro-1H-cyclopenta[a]chrysene-3a-carboxylic acid]: < 1 µM.

For the compound `C=C(C)[C@@H]1CC[C@]2(CO)CC[C@]3(C)[C@H](CC[C@@H]4[C@@]5(C)CC=C(c6ccc(O)nc6)C(C)(C)[C@@H]5CC[C@]43C)[C@@H]12` [Example 5e, 5-((1R,3aS,5aR,5bR,7aR,11aS,13aR,13bR)-3a-(hydroxymethyl)-5a,5b,8,8,11a-pentamethyl-1-(prop-1-en-2-yl)-2,3,3a,4,5,5a,5b,6,7,7a,8,11,11a,11b,12,13,13a,13b-octadecahydro-1H-cyclopenta[a]chrysen-9-yl)pyridin-2-ol], the EC50 was > 1 µM. `C=C(C)[C@@H]1CC[C@]2(C(=O)O)CC[C@]3(C)[C@H](CC[C@@H]4[C@@]5(C)CC=C(c6ccc(NC(=O)CCC(=O)O)cc6)C(C)(C)[C@@H]5CC[C@]43C)[C@@H]12` [Example 4b, (1R,3aS,5aR,5bR,7aR,11aS,11bR,13aR,13bR)-9-(4-(3-carboxypropanamido)phenyl)-5a,5b,8,8,11a-pentamethyl-1-(prop-1-en-2-yl)-2,3,3a,4,5,5a,5b,6,7,7a,8,11,11a,11b,12,13,13a,13b-octadecahydro-1H-cyclopenta[a]chrysene-3a-carboxylic acid]: the concentration giving a half-maximal response (EC50) is > 1 µM.

With `C=C(C)[C@@H]1CC[C@]2(CO)CC[C@]3(C)[C@H](CC[C@@H]4[C@@]5(C)CC=C(c6ccc(S(N)(=O)=O)cc6)C(C)(C)[C@@H]5CC[C@]43C)[C@@H]12` [Example 5j, 4-((1R,3aS,5aR,5bR,7aR,11aS,11bR,13aR,13bR)-3a-(hydroxymethyl)-5a,5b,8,8,11a-pentamethyl-1-(prop-1-en-2-yl)-2,3,3a,4,5,5a,5b,6,7,7a,8,11,11a,11b,12,13,13a,13b-octadecahydro-1H-cyclopenta[a]chrysen-9-yl)benzenesulfonamide], the 50% effective concentration (EC50) is < 1 µM. As for `C=C(C)[C@@H]1CC[C@]2(CO)CC[C@]3(C)[C@H](CC[C@@H]4[C@@]5(C)CC=C(c6cnc(C(=O)O)nc6)C(C)(C)[C@@H]5CC[C@]43C)[C@@H]12` [Example 5q, 5-((1R,3aS,5aR,5bR,7aR,11aS,11bR,13aR,13bR)-3a-(hydroxymethyl)-5a,5b,8,8,11a-pentamethyl-1-(prop-1-en-2-yl)-2,3,3a,4,5,5a,5b,6,7,7a,8,11,11a,11b,12,13,13a,13b-octadecahydro-1H-cyclopenta[a]chrysen-9-yl)pyrimidine-2-carboxylic acid], the EC50 was > 1 µM.

`C=C(C)[C@@H]1CC[C@]2(CO)CC[C@]3(C)[C@H](CC[C@@H]4[C@@]5(C)CC=C(c6ccc(C(=O)O)cc6C)C(C)(C)[C@@H]5CC[C@]43C)[C@@H]12` [Example 5r, 4-((1R,3aS,5aR,5bR,7aR,11aS,11bR,13aR,13bR)-3a-(hydroxymethyl)-5a,5b,8,8,11a-pentamethyl-1-(prop-1-en-2-yl)-2,3,3a,4,5,5a,5b,6,7,7a,8,11,11a,11b,12,13,13a,13b-octadecahydro-1H-cyclopenta[a]chrysen-9-yl)-3-methylbenzoic acid]: the EC50 is < 1 µM. Regarding `C=C(C)[C@@H]1CC[C@]2(CO)CC[C@]3(C)[C@H](CC[C@@H]4[C@@]5(C)CC=C(c6ccc(C(=O)O)c(C(=O)O)c6)C(C)(C)[C@@H]5CC[C@]43C)[C@@H]12` [Example 5t, 4-((1R,3aS,5aR,5bR,7aR,11aS,11bR,13aR,13bR)-3a-(hydroxymethyl)-5a,5b,8,8,11a-pentamethyl-1-(prop-1-en-2-yl)-2,3,3a,4,5,5a,5b,6,7,7a,8,11,11a,11b,12,13,13a,13b-octadecahydro-1H-cyclopenta[a]chrysen-9-yl)phthalic acid], the EC50 was < 1 µM. Take `C=C(C)[C@@H]1CC[C@]2(CO)CC[C@]3(C)[C@H](CC[C@@H]4[C@@]5(C)CC=C(c6ccc(C(=O)O)c(F)c6)C(C)(C)[C@@H]5CC[C@]43C)[C@@H]12` [Example 5m, 2-fluoro-4-((1R,3aS,5aR,5bR,7aR,11aS,11bR,13aR,13bR)-3a-(hydroxymethyl)-5a,5b,8,8,11a-pentamethyl-1-(prop-1-en-2-yl)-2,3,3a,4,5,5a,5b,6,7,7a,8,11,11a,11b,12,13,13a,13b-octadecahydro-1H-cyclopenta[a]chrysen-9-yl)benzoic acid]: the EC50 was < 1 µM.

(Values after US8754068B2, “Modified C-3 betulinic acid derivatives as HIV maturation inhibitors” (priority 2010, dated 2014).)
